Earlier results in patent US10689462B2, “Therapeutic and imaging compositions and uses thereof” (priority 2013, dated 2020).

Tests used:
[1] = test system: npc1^−/− mice; details: subcutaneous injection, 4.0 mg/kg of body weight
[2] = within 24 h
[3] = room temperature

hydroxypropyl-β-cyclodextrin [HP-β-CD]
Effect on survival, hepatopathology and neuropathology [1]: improvement in their survival, hepatopathology, and neuropathology
Fraction cleared from the bloodstream [2]: > 90%
Solubility in water [3]: 650 mg/mL
